Reference: ChEMBL document CHEMBL1130937, “Stereoselective synthesis of a novel and bifunctional endothelin antagonist, IRL 3630” (Bioorg Med Chem Lett, 1998)
pKi: −log10 of the molar value.

Experiments:
Endothelin-1 receptor = target: T1, Endothelin-1 receptor (Homo sapiens, UniProt P25101); assay: Compound was tested for the binding affinity against Endothelin A receptor
T1 sequence (P25101 whole entry): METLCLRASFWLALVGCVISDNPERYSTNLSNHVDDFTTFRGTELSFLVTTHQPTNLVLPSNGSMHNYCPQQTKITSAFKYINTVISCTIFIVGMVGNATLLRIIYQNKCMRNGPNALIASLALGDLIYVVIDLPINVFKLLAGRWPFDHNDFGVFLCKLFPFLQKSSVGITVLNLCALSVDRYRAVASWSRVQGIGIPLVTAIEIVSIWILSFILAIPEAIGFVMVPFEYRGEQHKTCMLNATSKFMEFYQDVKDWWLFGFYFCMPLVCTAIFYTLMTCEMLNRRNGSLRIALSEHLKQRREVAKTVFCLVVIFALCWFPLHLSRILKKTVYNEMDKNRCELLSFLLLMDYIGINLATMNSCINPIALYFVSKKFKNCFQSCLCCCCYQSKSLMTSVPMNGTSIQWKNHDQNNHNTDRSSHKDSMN

[1] = target: T2, Endothelin receptor type B (Homo sapiens, UniProt P24530); assay: Compound was tested for the binding affinity against Endothelin B receptor
T2 sequence (P24530 whole entry): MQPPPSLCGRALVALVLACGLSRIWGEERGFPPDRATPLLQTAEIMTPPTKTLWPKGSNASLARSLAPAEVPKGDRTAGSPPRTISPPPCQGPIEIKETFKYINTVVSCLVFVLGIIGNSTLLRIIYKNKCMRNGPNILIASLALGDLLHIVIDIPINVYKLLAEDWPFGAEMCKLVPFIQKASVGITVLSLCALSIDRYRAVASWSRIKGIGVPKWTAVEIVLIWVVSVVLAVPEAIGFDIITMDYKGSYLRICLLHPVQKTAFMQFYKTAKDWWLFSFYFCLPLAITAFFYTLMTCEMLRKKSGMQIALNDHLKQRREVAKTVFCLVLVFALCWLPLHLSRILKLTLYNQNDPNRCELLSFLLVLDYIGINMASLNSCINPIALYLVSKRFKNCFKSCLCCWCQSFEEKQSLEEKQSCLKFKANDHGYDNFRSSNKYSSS

| pKi (Endothelin-1 receptor) | pKi [1] | SMILES |
| --- | --- | --- |
| 6.07 | 7.62 | CCCCS(=O)(=O)NC(=O)[C@H](NC(=O)[C@@H](Cc1ccc(-c2ccno2)cc1)N(C)C(=O)c1cc(C)cc(C)c1)C(C)C |
| 4.57 | 5.92 | CCCCS(=O)(=O)NC(=O)[C@H](NC(=O)[C@H](Cc1ccc(-c2ccno2)cc1)N(C)C(=O)c1cc(C)cc(C)c1)C(C)C |
| 8.82 |  | CCCCS(=O)(=O)NC(=O)[C@@H](NC(=O)[C@@H](Cc1ccc(-c2ccno2)cc1)N(C)C(=O)c1cc(C)cc(C)c1)C(C)C |
| 5.17 | 5.92 | CCCCS(=O)(=O)NC(=O)[C@@H](NC(=O)[C@H](Cc1ccc(-c2ccno2)cc1)N(C)C(=O)c1cc(C)cc(C)c1)C(C)C |
